Results as given in patent publication US20200138020A1, “MICROBICIDAL COMPOSITION” (DDP Specialty Electronic Materials US 8, LLC, priority 2017, published 2020).
Read-outs that look alike come from different tables or passages of the source.

Assays:
[1] = system: Aspergillus brasiliensis ATCC 16404; assay: Synergy test: high resolution MIC microtiter plate assay, Potato Dextrose Broth; type: cell-based; settings: A. brasiliensis ATCC 16404, PDB, contact time 3 days; for SI (Synergy Index, Qa/QA+Qb/QB): <1 synergy; for MIC: Aspergillus brasiliensis, ATCC16404, 72 h, 25 °C
Description: (§1) One measure of synergism is the industrially accepted method described by Kull, F. C.; Eisman, P. C.; Sylwestrowicz, H. D. and Mayer, R. L., in Applied Microbiology 9:538-541 (1961), using the ratio determined by the formula:
(§2) Qa/QA+Qb/QB=Synergy Index (“SI”)
(§3) wherein: • QA=concentration of compound A (first component) in ppm, acting alone, which produced an end point (MIC of Compound A). • Qa=concentration of compound A in ppm, in the mixture, which produced an end point. • QB=concentration of compound B (second component) in ppm, acting alone, which produced an end point (MIC of Compound B). • Qb=concentration of compound B in ppm, in the mixture, which produced an end point.
(§4) When the sum of Qa/QA and Qb/QB is greater than one, antagonism is indicated. […] The lower the SI, the greater is the synergy shown by that particular mixture. The minimum inhibitory concentration (MIC) of a microbicide is the lowest concentration tested under a specific set of conditions that prevents the growth of the tested microorganisms.
(§5) Synergy tests were conducted using standard microtiter plate assays with media designed for optimal growth of the test microorganism. Potato Dextrose Broth (PDB medium) was used for testing yeast and mold. In this method, a wide range of combinations of microbicides and other personal care raw materials was tested by conducting high resolution MIC assays in the presence of lactic acid. High resolution MICs were determined by adding varying amounts of microbicide to one column of a microtitre plate and doing subsequent […] dilutions using an automated liquid handling system to obtain a series of closely spaced endpoints.
(§6) The synergy of the combinations of the present invention was determined against a yeast, Candida albicans (C. albicans ATCC 10231) and a mold, Aspergillus brasiliensis (A. brasiliensis ATCC 16404). The yeast and mold were used at concentrations of 5×10^5 cells per mL. These microorganisms are representative of natural contaminants in many consumer and industrial applications.
(§7) In this test, First Component (A) was lactic acid and the Second Component (B) was phenethyl alcohol.
• Aspergillus brasiliensis • ATCC 16404 • Potato Dextrose Broth • Contact Time=3 days

[2] = system: Candida albicans ATCC 10231; assay: as above; type: cell-based; settings: C. albicans ATCC 10231, PDB, contact time 48 hours; for SI (Synergy Index, Qa/QA+Qb/QB): <1 synergy; for MIC: Candida albicans, ATCC10231, 25 °C
Description: as §1, §2, §3, §4, §5, §6, §7
• Candida albicans • ATCC 10231 • Potato Dextrose Broth • Contact Time=48 hours

[3] = read-out: MIC for lactic acid alone (QA)
[4] = read-out: MIC for phenethyl alcohol alone (QB)

MIC [1, 3] | MIC [2, 3] | MIC [1, 4] | MIC [2, 4] | Compound | SI (Synergy Index, Qa/QA+Qb/QB) [1] | SI (Synergy Index, Qa/QA+Qb/QB) [2]
30000 µg/mL | 6000 µg/mL |  |  | CC(O)C(=O)O (centres unmarked) [Lactic Acid, 2-hydroxypropanoic acid] | 1.00 | 1.00
 |  | 10000 µg/mL | 10000 µg/mL | OCCc1ccccc1 [Phenethyl Alcohol, 2-phenylethan-1-ol] | 1.00 | 1.00
